The values that follow are results of earlier work, collected in patent publication US20200390702A1, “LIPOSOMAL TAXANES FOR TREATMENT OF SCLC” (Plus Therapeutics, Inc., priority 2017, published 2020).

The data set deals with SCLC. As to conditions: intravenous.

Like-named read-outs stand apart in the source and are kept apart here.

For the compound `CC[C@@]1(O)C(=O)OCc2c1cc1n(c2=O)Cc2cc3c(CN(C)C)c(O)ccc3nc2-1` [Topotecan], the response rate is given as 4.0% (chemotherapy-refractory relapsed cases) and 20.4% (chemotherapy-sensitive relapsed cases).
